# According to PubChem BioAssay AID248 (DTP/NCI, 2004):
# Several values for one entry are separate records, joined by “and”; a condition that tells them apart may be missing. Equal values may be shown once. Toxic doses and inconclusive results are not listed.
# System: L1210 leukemia ip in BDF1 mice, survival T/C
# Assay: NCI In Vivo Anticancer Drug Screen. Data for tumor model L1210 Leukemia (intraperitoneal) in B6D2F1 (BDF1) mice
# Settings: endpoint: mean survival time, higher = longer survival
# Procedure, shortened: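 Value reflects the ratio of survival in compound-treated mice to survival in vehicle-treated controls, with both groups carrying the same transplanted tumor.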
# [1] = dose: 100.0 mg/kg/injection, schedule: Q04DX003 (ip), vehicle: Klucel (hydroxypropylcellulose) (HPC)
# [2] = dose: 100.0 mg/kg/injection, schedule: Q04DX002 (ip), vehicle: saline with Tween-80
# [3] = dose: 200.0 mg/kg/injection, schedule: Q04DX002 (ip), vehicle: saline with Tween-80
# [4] = dose: 100.0 mg/kg/injection, schedule: Q01DX009 (ip), vehicle: saline with Tween-80
# [5] = dose: 200.0 mg/kg/injection, schedule: Q01DX009 (ip), vehicle: saline with Tween-80
# [6] = dose: 400.0 mg/kg/injection, schedule: Q01DX009 (ip), vehicle: saline with Tween-80
# [7] = dose: 100.0 mg/kg/injection, schedule: Q01DX001 (ip), vehicle: carboxymethylcellulose (CMC)
# [8] = dose: 200.0 mg/kg/injection, schedule: Q01DX001 (ip), vehicle: carboxymethylcellulose (CMC)
# [9] = dose: 400.0 mg/kg/injection, schedule: Q01DX001 (ip), vehicle: carboxymethylcellulose (CMC)
smiles,measurement,setting,value
O=C(O)c1cc(Cl)c(Cl)s1,T/C,"dose: 25.0 mg/kg/injection, schedule: Q04DX003 (ip), vehicle: Klucel (hydroxypropylcellulose) (HPC)",101 % of control
same,T/C,"dose: 50.0 mg/kg/injection, schedule: Q04DX003 (ip), vehicle: Klucel (hydroxypropylcellulose) (HPC)",100 % of control
same,T/C,[1],103 % of control
N=C(N)SCC(=O)c1ccc([N+](=O)[O-])cc1,T/C,[2],88 % of control
same,T/C,[3],95 % of control
Cc1cccc2c1CCC(OC(=O)c1cc([N+](=O)[O-])cc([N+](=O)[O-])c1)C2 (centres undefined),T/C,[4],86 % of control
same,T/C,[5],169 % of control
same,T/C,[6],95 % of control
[Cl][Pd][Cl].[NH-]C1CCCC1.[NH-]C1CCCC1,T/C,"dose: 6.25 mg/kg/injection, schedule: Q04DX002 (ip), vehicle: saline",102 % of control
same,T/C,"dose: 12.5 mg/kg/injection, schedule: Q04DX002 (ip), vehicle: saline",105 % of control
same,T/C,"dose: 25.0 mg/kg/injection, schedule: Q04DX002 (ip), vehicle: saline",97 % of control
COc1ccccc1/C=C(\C(=O)O)c1cccc2ccccc12,T/C,[1],93 % of control
same,T/C,"dose: 200.0 mg/kg/injection, schedule: Q04DX003 (ip), vehicle: Klucel (hydroxypropylcellulose) (HPC)",100 % of control
same,T/C,"dose: 400.0 mg/kg/injection, schedule: Q04DX003 (ip), vehicle: Klucel (hydroxypropylcellulose) (HPC)",98 % of control
O=C(NCc1cnccn1)c1ccc([N+](=O)[O-])cc1,T/C,[4],98 % of control
same,T/C,[5],104 % of control
same,T/C,[6],98 % of control
O=C(NCCN1CCOCC1)c1ccc(C(=O)NCCN2CCOCC2)cc1,T/C,"dose: 100.0 mg/kg/injection, schedule: Q01DX001 (ip), vehicle: saline",103 % of control
same,T/C,"dose: 200.0 mg/kg/injection, schedule: Q01DX001 (ip), vehicle: saline",105 % of control
same,T/C,"dose: 400.0 mg/kg/injection, schedule: Q01DX001 (ip), vehicle: saline",100 % of control
CC(C)(C)c1ccccc1OC(=O)Nc1ccc(F)cc1,T/C,[7],98 % of control
same,T/C,"dose: 100.0 mg/kg/injection, schedule: Q01DX009 (ip), vehicle: carboxymethylcellulose (CMC)",95 % of control and 97 % of control
same,T/C,"dose: 100.0 mg/kg/injection, schedule: Q04DX002 (ip), vehicle: carboxymethylcellulose (CMC)",94 % of control and 96 % of control and 106 % of control
same,T/C,"dose: 100.0 mg/kg/injection, schedule: Q04DX003 (ip), vehicle: carboxymethylcellulose (CMC)",97 % of control
same,T/C,[8],104 % of control
same,T/C,"dose: 200.0 mg/kg/injection, schedule: Q01DX009 (ip), vehicle: carboxymethylcellulose (CMC)",105 % of control
same,T/C,"dose: 200.0 mg/kg/injection, schedule: Q04DX002 (ip), vehicle: carboxymethylcellulose (CMC)",97 % of control and 98 % of control (2×)
same,T/C,"dose: 200.0 mg/kg/injection, schedule: Q04DX003 (ip), vehicle: carboxymethylcellulose (CMC)",97 % of control
same,T/C,[9],101 % of control
same,T/C,"dose: 400.0 mg/kg/injection, schedule: Q01DX009 (ip), vehicle: carboxymethylcellulose (CMC)",103 % of control
same,T/C,"dose: 400.0 mg/kg/injection, schedule: Q04DX002 (ip), vehicle: carboxymethylcellulose (CMC)",92 % of control and 94 % of control and 98 % of control
same,T/C,"dose: 400.0 mg/kg/injection, schedule: Q04DX003 (ip), vehicle: carboxymethylcellulose (CMC)",91 % of control
Cc1ccc(S(=O)(=O)OCCCl)cc1,T/C,[2],98 % of control
same,T/C,[3],109 % of control
N#[N+]c1c([O-])[nH]c(=S)[nH]c1=O,T/C,"dose: 100.0 mg/kg/injection, schedule: Q01DX009 (ip), vehicle: acetone",92 % of control
same,T/C,"dose: 100.0 mg/kg/injection, schedule: Q04DX003 (ip), vehicle: acetone",100 % of control
same,T/C,"dose: 200.0 mg/kg/injection, schedule: Q01DX009 (ip), vehicle: acetone",96 % of control
same,T/C,"dose: 200.0 mg/kg/injection, schedule: Q04DX003 (ip), vehicle: acetone",103 % of control
same,T/C,"dose: 400.0 mg/kg/injection, schedule: Q01DX009 (ip), vehicle: acetone",88 % of control
same,T/C,"dose: 400.0 mg/kg/injection, schedule: Q04DX003 (ip), vehicle: acetone",94 % of control
O=C1C(=O)N2CCCCc3cccc1c32,T/C,"dose: 50.0 mg/kg/injection, schedule: Q01DX001 (ip), vehicle: carboxymethylcellulose (CMC)",96 % of control
same,T/C,[7],108 % of control
same,T/C,[8],100 % of control
same,T/C,[9],101 % of control
